Test results taken from patent US20130065936A1, “MODULATION OF BIOACTIVE EPOXY-FATTY ACID LEVELS BY PHOSPHODIESTERASE INHIBITORS” (THE REGENTS OF THE UNIVERSITY OF CALIFORNIA, priority 2010, published 2013).
Read-outs that look alike come from different tables or passages of the source.

Columns and labels:
recombinant mouse sEH = target: T1, recombinant mouse sEH (Mus musculus, UniProt P34914); assay: Potency on recombinant mouse sEH, fluorescent substrate; assay type: biochemical
T1 construct: made in house
T1 sequence (P34914 1-554): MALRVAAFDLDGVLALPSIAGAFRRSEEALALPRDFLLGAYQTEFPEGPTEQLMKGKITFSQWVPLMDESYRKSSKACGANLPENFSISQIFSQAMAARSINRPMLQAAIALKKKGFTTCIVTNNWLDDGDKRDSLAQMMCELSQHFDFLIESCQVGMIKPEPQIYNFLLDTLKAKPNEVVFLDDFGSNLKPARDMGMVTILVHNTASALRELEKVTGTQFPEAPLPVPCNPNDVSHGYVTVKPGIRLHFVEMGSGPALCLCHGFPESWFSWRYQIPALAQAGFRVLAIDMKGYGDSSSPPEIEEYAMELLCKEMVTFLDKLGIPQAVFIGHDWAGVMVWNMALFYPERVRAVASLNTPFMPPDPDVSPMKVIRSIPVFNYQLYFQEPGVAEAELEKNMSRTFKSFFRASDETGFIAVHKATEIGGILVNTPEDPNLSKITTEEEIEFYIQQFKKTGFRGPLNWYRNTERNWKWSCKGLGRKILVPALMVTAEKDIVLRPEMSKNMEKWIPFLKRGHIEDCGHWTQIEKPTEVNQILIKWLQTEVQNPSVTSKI

recombinant rat sEH = target: T2, recombinant rat sEH (Rattus norvegicus, UniProt P80299); assay: Potency on recombinant rat sEH, fluorescent substrate; assay type: biochemical
T2 construct: made in house
T2 sequence (P80299 1-554): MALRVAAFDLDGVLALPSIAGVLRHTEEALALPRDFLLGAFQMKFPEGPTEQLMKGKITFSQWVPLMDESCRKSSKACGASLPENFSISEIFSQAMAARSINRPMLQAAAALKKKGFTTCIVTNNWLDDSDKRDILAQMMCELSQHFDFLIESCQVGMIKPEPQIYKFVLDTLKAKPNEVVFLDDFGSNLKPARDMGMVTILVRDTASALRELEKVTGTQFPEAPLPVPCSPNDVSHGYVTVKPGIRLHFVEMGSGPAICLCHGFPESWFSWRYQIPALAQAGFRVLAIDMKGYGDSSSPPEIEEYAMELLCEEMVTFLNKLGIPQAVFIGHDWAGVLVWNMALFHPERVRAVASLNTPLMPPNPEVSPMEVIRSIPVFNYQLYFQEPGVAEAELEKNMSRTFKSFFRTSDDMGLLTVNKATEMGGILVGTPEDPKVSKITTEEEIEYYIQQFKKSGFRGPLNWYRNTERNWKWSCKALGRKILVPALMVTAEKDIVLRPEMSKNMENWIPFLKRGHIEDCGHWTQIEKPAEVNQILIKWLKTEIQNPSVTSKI

[1] = test system: endogenous oxylipin sEH substrates and products in rat plasma; assay: Oxylipin analysis in rat plasma after sEHI / PDE inhibitor administration (LC-ESI-MS/MS); assay type: in vivo; conditions: rat plasma 60 min after s.c., TPAU 10 mg/kg, rolipram 1 mg/kg;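 also: plasma from tail vein blood, oxylipins quantified by LC-ESI-MS/MS against deuterated internal standards following solid-phase extraction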
Sprague-Dawley rats [2] = assay: Acute nociceptive responses in healthy rats, Hargreaves thermal withdrawal latency; assay type: in vivo, rat; conditions: healthy rats
Sprague-Dawley rats [3] = assay: Open field activity; assay type: in vivo, rat; conditions: 1 h following administration
Procedure: For the measurement of open field activity animals were placed in an acrylic chamber (40×40×20 cm length×width×height) divided into 100 cm^2 (10×10 cm) sections. The number of crossings were recorded when both hind paws crossed into a neighboring cell.

Structure (SMILES): COc1ccc(C2CNC(=O)C2)cc1OC1CCCC1 (stereo not shown) [Rolipram]
- IC50 (recombinant mouse sEH): > 10 µM
- inhibitory activity in the sEH assay (recombinant rat sEH; 10 and 100 μM, recombinant rat enzyme): No inhibition was observed
- IC50 (recombinant rat sEH; read-out: IC50 on recombinant rat sEH): > 100 µM
- IC50 (recombinant rat sEH; recombinant sEH, read-out: IC50 Rat): > 10 µM
- 8(9)-EpETE [1]: 1.25 nM
- 8(9)-EpETrE [1]: 9.63 nM
- 8,9-DiHETE [1]: 0.07 nM
- 8,9-DiHETrE [1]: 0.45 nM
- 9(10)-EpOME [1]: 55.27 nM
- 9,10-DiHOME [1]: 24.32 nM
- 10(11)-EpDPE [1]: 7.51 nM
- 10,11-DiHDPE [1]: 0.33 nM
- 11(12)-EpETE [1]: 0.93 nM
- 11(12)-EpETrE [1]: 13.15 nM
- 11,12-DiHETE [1]: 0.20 nM
- 11,12-DiHETrE [1]: 1.67 nM
- 12(13)-EpOME [1]: 36.32 nM
- 12,13-DiHOME [1]: 42.01 nM
- 13(14)-EpDPE [1]: 3.88 nM
- 13,14-DiHDPE [1]: 0.37 nM
- 14(15)-EpETE [1]: 0.84 nM
- 14(15)-EpETrE [1]: 8.52 nM
- 14,15-DiHETE [1]: 0.28 nM
- 14,15-DiHETrE [1]: 1.74 nM
- 16(17)-EpDPE [1]: 3.93 nM
- 16,17-DiHDPE [1]: 0.72 nM
- 17(18)-EpETE [1]: 1.76 nM
- 17,18-DiHETE [1]: 0.77 nM
- 19(20)-EpDPE [1]: 7.46 nM
- 19,20-DiHDPE [1]: 2.13 nM
- total Dihydroxyeicosanoid [1]: 75.1 nM
- total Epoxyeicosanoid [1]: 150.4 nM
- 12(13)-EpOME ([1]; listed as rolipram): no increase
- 12,13-DiHOME ([1]; listed as rolipram): significant elevation
- thermal withdrawal latency (Sprague-Dawley rats [2]; 2 and 4 h after treatments): devoid of effect on withdrawal latency
- thermal withdrawal latency / pain related behavior, change from predrug baseline (Sprague-Dawley rats [2]; s.c., about 1 h after administration): effective in elevating pain thresholds
- voluntary movement in an open-field chamber (motor depressant effect) (Sprague-Dawley rats [3]): significant and dose-dependent decrease in voluntary movement
